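In this assay, cells in 96-well plates receive the compound at five concentrations for 48 hours. Endpoints are linearly interpolated between the surrounding concentrations. GI50 is the concentration that inhibits growth by half.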 Activity calls are given as the source filed them. No stated cut-off is given here; in the data, active = GI50 up to about 1.1 µM and inactive = higher.
How the values were obtained:
Test in all cases: growth of human tumour cells (NCI), 48 h
EKVX = system: EKVX
HT-29 = system: HT-29
SN12C = system: SN12C
M14 = system: M14
UACC-257 = system: UACC-257
COLO 205 = system: COLO 205
SNB-19 = system: SNB-19
CCRF-CEM = system: CCRF-CEM
PC-3 = system: PC-3
HCT-15 = system: HCT-15
Malme-3M = system: Malme-3M
UACC-62 = system: UACC-62
SF-539 = system: SF-539
NCI-H226 = system: NCI-H226
MDA-MB-435 = system: MDA-MB-435
CAKI-1 = system: CAKI-1
OVCAR-8 = system: OVCAR-8
SK-MEL-2 = system: SK-MEL-2
RXF 393 = system: RXF 393
A498 = system: A498

| Compound | GI50 (EKVX) | GI50 (HT-29) | GI50 (SN12C) | GI50 (M14) | GI50 (UACC-257) | GI50 (COLO 205) | GI50 (SNB-19) | GI50 (CCRF-CEM) | GI50 (PC-3) | GI50 (HCT-15) [µM] | GI50 (Malme-3M) | GI50 (UACC-62) | GI50 (SF-539) | GI50 (NCI-H226) | GI50 (MDA-MB-435) | GI50 (CAKI-1) | GI50 (OVCAR-8) | GI50 (SK-MEL-2) | GI50 (RXF 393) | GI50 (A498) |
| --- | --- | --- | --- | --- | --- | --- | --- | --- | --- | --- | --- | --- | --- | --- | --- | --- | --- | --- | --- | --- |
| CCC1(O)CC(OC2CC(N(C)C)C(OC3CC(O)C(OC4CCC(=O)C(C)O4)C(C)O3)C(C)O2)c2c(O)c3c(c(O)c2C1C(=O)OC)C(=O)c1cccc(O)c1C3=O (stereo unspecified) | 0.012 µM (active) | 0.00445 µM (active) | 0.00966 µM (active) | 0.01 µM (active) | 0.0059 µM (active) | 0.00327 µM (active) | 0.00457 µM (active) | 0.00176 µM (active) | 0.00502 µM (active) | 0.00719 | 0.0125 µM (active) | 0.0101 µM (active) | 0.0101 µM (active) | 0.0126 µM (active) | 0.0067 µM (active) | 0.000267 µM (active) | 0.00174 µM (active) | 0.0103 µM (active) |  |  |
| O=C(O)c1cc2ccccc2c(/N=N\c2cc(C(F)(F)F)ccc2Cl)c1O | 70 µM (inactive) | 77.6 µM (inactive) | 44.9 µM (inactive) | > 100 µM (inactive) | 67.6 µM (inactive) | 39.7 µM (inactive) | 1.17 µM (inactive) | 33.6 µM (inactive) | 48.6 µM (inactive) | 83.8 | 37.4 µM (inactive) |  | 99.3 µM (inactive) | > 100 µM (inactive) | > 100 µM (inactive) | 94.8 µM (inactive) | 60.8 µM (inactive) | 25.4 µM (inactive) | 35.2 µM (inactive) |  |
| COc1cc(C2CC(C)(N3CCOCC3)Oc3cc4c(cc32)OCO4)cc(OC)c1OC (stereo unspecified) |  | 0.131 µM (active) | 0.189 µM (active) | 0.421 µM (active) | > 50.1 µM (inactive) | 0.845 µM (active) | 0.589 µM (active) | 0.0352 µM (active) | 0.116 µM (active) | 0.136 | 0.0726 µM (active) | 0.139 µM (active) | 0.0619 µM (active) | 5.35 µM (inactive) | < 0.01 µM (active) | 0.177 µM (active) | 0.531 µM (active) |  |  |  |
| CCOP(=O)(OCC)C1CC(n2cc(C)c(=O)[nH]c2=O)OC1CO (stereo unspecified) |  | > 100 µM (inactive) | > 100 µM (inactive) | > 100 µM (inactive) | > 100 µM (inactive) |  | > 100 µM (inactive) | > 100 µM (inactive) | > 100 µM (inactive) | > 100 | > 100 µM (inactive) | > 100 µM (inactive) | > 100 µM (inactive) | > 100 µM (inactive) |  | > 100 µM (inactive) | > 100 µM (inactive) | > 100 µM (inactive) | > 100 µM (inactive) | > 100 µM (inactive) |
| O=C1C=CC(=O)C2=C1[C@@H](O)C1CC=CC3C(=O)O[C@@H]2C31 (stereo partly specified) | > 59.6 µM (inactive) | 24.3 µM (inactive) | 20.7 µM (inactive) | 19.6 µM (inactive) | 21.8 µM (inactive) | 20.3 µM (inactive) | > 100 µM (inactive) | 8.2 µM (inactive) |  | 19.2 | 19.1 µM (inactive) | 19.2 µM (inactive) | > 43.9 µM (inactive) | 37.5 µM (inactive) |  | 20.4 µM (inactive) | 39.5 µM (inactive) | 18.2 µM (inactive) | 18 µM (inactive) | > 100 µM (inactive) |
| COc1cc(/C=C/c2ccc(O)c(OC)c2)cc(OC)c1 | 28.2 µM (inactive) | 30.8 µM (inactive) |  | 21 µM (inactive) | 24.8 µM (inactive) | > 100 µM (inactive) | 36.4 µM (inactive) | 14.4 µM (inactive) | 10.3 µM (inactive) | 14.3 | 30.7 µM (inactive) |  |  |  |  | 27.1 µM (inactive) | 37.5 µM (inactive) |  | 22.6 µM (inactive) | 21.6 µM (inactive) |
| c1ccc(NC2(c3nnnn3C3CCCCC3)CCNCC2)cc1 | 20.7 µM (inactive) | 16.7 µM (inactive) | 36.6 µM (inactive) | 17.6 µM (inactive) | 15.7 µM (inactive) | 19.8 µM (inactive) | 17.5 µM (inactive) | 20.4 µM (inactive) |  | 21.2 | 17.1 µM (inactive) | 18.3 µM (inactive) | 15.6 µM (inactive) | 17.9 µM (inactive) | 19.4 µM (inactive) |  | 28.6 µM (inactive) |  | > 10 µM (inactive) | 18 µM (inactive) |
| CN1CCN(C(=S)N(C(=O)c2ccc(Cl)cc2)c2ccccc2)CC1 |  | > 100 µM (inactive) | > 100 µM (inactive) | > 100 µM (inactive) | > 100 µM (inactive) | > 100 µM (inactive) | > 100 µM (inactive) | > 10 µM (inactive) |  | > 100 | > 100 µM (inactive) | > 100 µM (inactive) |  | > 100 µM (inactive) | > 100 µM (inactive) |  | > 100 µM (inactive) | > 100 µM (inactive) | > 100 µM (inactive) |  |
| O=C1CCCC2=C1C(c1ccc3c(c1)OCO3)Nc1ccc3ccccc3c12 (stereo unspecified) | 36.9 µM (inactive) | > 100 µM (inactive) | > 100 µM (inactive) | > 100 µM (inactive) | > 100 µM (inactive) | > 100 µM (inactive) | > 100 µM (inactive) | > 100 µM (inactive) |  | > 100 | > 100 µM (inactive) | > 100 µM (inactive) | > 100 µM (inactive) | > 100 µM (inactive) | > 100 µM (inactive) | > 100 µM (inactive) | 87.5 µM (inactive) | > 100 µM (inactive) | > 100 µM (inactive) | > 100 µM (inactive) |
| COc1cc(C(C)(C)C)c(OC(=O)/C=C/C(=O)O/C=C/[N+](=O)[O-])c(C(C)(C)C)c1 | 69 µM (inactive) | 21.1 µM (inactive) | 41.3 µM (inactive) | 21.1 µM (inactive) | 47.6 µM (inactive) | 42.9 µM (inactive) |  | 10.2 µM (inactive) |  | 17.8 |  | 33.2 µM (inactive) | 34.4 µM (inactive) | 28.1 µM (inactive) | 21.2 µM (inactive) | 23.5 µM (inactive) | 36.4 µM (inactive) |  | 27.6 µM (inactive) | 44.4 µM (inactive) |
| Clc1ccc(-c2nc3ccc4ccccc4c3c3c2CCCC3)cc1 | 30.1 µM (inactive) | 44.6 µM (inactive) |  | > 100 µM (inactive) | > 100 µM (inactive) | > 100 µM (inactive) | > 100 µM (inactive) | 68.4 µM (inactive) |  | 62.8 | > 100 µM (inactive) | > 100 µM (inactive) | > 100 µM (inactive) | > 100 µM (inactive) | > 100 µM (inactive) | > 100 µM (inactive) | > 100 µM (inactive) | > 100 µM (inactive) | > 100 µM (inactive) | > 100 µM (inactive) |
| [O-][S+](Nc1ccccc1)c1cccc(Cl)c1 (stereo unspecified) | 27 µM (inactive) | > 100 µM (inactive) | > 100 µM (inactive) | > 100 µM (inactive) | > 100 µM (inactive) | > 100 µM (inactive) | > 100 µM (inactive) | 50.4 µM (inactive) | 65.9 µM (inactive) | 29.6 | > 100 µM (inactive) |  | 27.5 µM (inactive) | > 100 µM (inactive) | 72.1 µM (inactive) | 91 µM (inactive) | 77.1 µM (inactive) |  | 51.1 µM (inactive) |  |
| NCCN(CCN(C(=O)Nc1ccccc1)c1ccccc1)C(=O)Nc1ccccc1 | 23.6 µM (inactive) | 28.5 µM (inactive) | 23.2 µM (inactive) | 21.3 µM (inactive) | 19 µM (inactive) | 23 µM (inactive) | 28.6 µM (inactive) | 41.6 µM (inactive) | 24.5 µM (inactive) | 24.5 | 17.1 µM (inactive) | 16.6 µM (inactive) |  | 32.2 µM (inactive) |  |  | 23 µM (inactive) | 19.2 µM (inactive) | 14.7 µM (inactive) | 18.3 µM (inactive) |
| Cc1ccc(C)c2c1CC(Cc1ccccc1C(=O)O)C2=O (stereo unspecified) | > 100 µM (inactive) | > 100 µM (inactive) | > 100 µM (inactive) | > 100 µM (inactive) | > 100 µM (inactive) | > 100 µM (inactive) | > 100 µM (inactive) | > 100 µM (inactive) | > 100 µM (inactive) | > 100 | > 100 µM (inactive) | > 100 µM (inactive) | > 100 µM (inactive) | > 100 µM (inactive) | > 100 µM (inactive) | > 100 µM (inactive) | > 100 µM (inactive) | > 100 µM (inactive) | 83.2 µM (inactive) |  |
| O=C1NC(N2CCCC(CO)C2)=N/C1=C\c1ccc(Cl)cc1 (stereo unspecified) | 49.1 µM (inactive) | > 100 µM (inactive) | > 100 µM (inactive) | > 100 µM (inactive) | > 100 µM (inactive) | > 100 µM (inactive) | > 100 µM (inactive) | > 100 µM (inactive) | > 100 µM (inactive) | 77.6 | > 100 µM (inactive) | > 100 µM (inactive) | > 100 µM (inactive) | > 100 µM (inactive) | > 100 µM (inactive) | > 100 µM (inactive) | > 100 µM (inactive) | > 100 µM (inactive) | > 100 µM (inactive) |  |
| COc1cc2c(c(OC)c1OC)[C@@H]1CCCCC[C@@H]1CCC2=O | > 100 µM (inactive) | > 71.6 µM (inactive) | > 100 µM (inactive) | > 100 µM (inactive) | 59.7 µM (inactive) | > 48.6 µM (inactive) | > 100 µM (inactive) | 22.8 µM (inactive) |  | > 75 | > 100 µM (inactive) | 78.9 µM (inactive) | > 100 µM (inactive) | > 100 µM (inactive) |  | > 100 µM (inactive) | > 100 µM (inactive) | > 92.9 µM (inactive) | > 100 µM (inactive) | > 100 µM (inactive) |
